PubChem BioAssay AID1918943 (Molecular Pharmacology Branch, DTP, NCI, 2023)

Test system: 855422-203-R-J1-PDC complex spheroid viability
Assay: Anticancer human tumor 855422-203-R-J1-PDC patient-derived bladder carcinoma cell line growth inhibition
Settings: for IC50: curve of first compound; for viability, T/C: stronger effect = lower value
Excerpt: Multicellular complex tumor spheroid response to LSD1 Inhibitor Iadademstat in combination with a variety of drugs and investigational agents in selected tumor cell lines
The current study was undertaken to assess response to LSD1 inhibitors in combination with standard-of-care drugs and investigational agents in solid tumor complex spheroid models as well as in the K-562 leukemia. Complex spheroids include a stromal component modeled by human endothelial cells (HUVEC) and fibroblasts modeled by human mesenchymal stem cells (MSCs). The concentration ranges selected for each drug and investigational agent were based upon clinically achievable concentrations if the clinical Cmax of the agent was known.
Compounds. The drugs and investigational agents used in this study are listed on Table 1. All of the agents used, including staurosporine (NSC755774) and gemcitabine (NSC613327), were obtained from the Developmental Therapeutics Program, NCI. FDA-approved anticancer drugs are available from the NCI at http://dtp.nci.nih.gov/branches/dscb/oncology_drugset_explanation.html. Drugs and investigational agents were >95% pure by proton nuclear magnetic resonance (NMR) and liquid chromatography/mass spectrometry (LC/MS). Stock solutions were prepared at 400x in DMSO, stored at -70 degrees C, and diluted in fresh medium prior to their use. The final concentration of DMSO in cell culture wells never exceeded 0.25% (v/v). The FDA-approved anticancer drug set is available from the Developmental Therapeutics Program at https://dtp.cancer.gov/organization/dscb/obtaining/available_plates.htm. All drugs and investigational agents were tested over a range starting from a high concentration at or near the clinical Cmax and decreasing in half-log increments. If the clinical Cmax for an agent had not been determined, the highest concentration tested was 10 microM.
Cell Lines. The patient-derived cancer cell (PDC) lines: 292921-168-R-J2-PDC, K24384-001-R-PDC, and 521955-158-R2-J5-PDC pancreatic carcinomas, 556581-035-R-J1 ovarian carcinoma, 324938-238-R-J1-PDC, 855422-203-R-J1-PDC and 883617-216-R-J1-PDC urothelial bladder carcinomas, 743489-274-T-PDC renal cell carcinoma, 138582-R-J1 Merkel cell tumor, K60290-347-R-J1 and K57222-313-R-J1-PDC glioblastomas, 653999-131-R-J2-PDC, LG0703-F948-PDC, and 349418-098-R-PDC non-small cell lung carcinomas, 885512-296-R-J2-PDC, 171881-019-R-J1-PDC breast carcinomas and 186277-243-T-J2-PDC and 233499-124-R-J2-PDC colon carcinomas were obtained from the NCI Patient-Derived Models Repository (PDMR, https://pdmr.cancer.gov). The established cell lines NCI/ADR-RES (RRID:CVCL_14520 and OVCAR-5 (RRID:CVCL_1628) ovarian carcinomas, 786-O (RRID:CVCL_1051) and A498 (RRID:CVCL_A498) renal cell carcinoma, NCI-H211 (ATCC, cat. CRL-5824; RRID:CVCL_1529), NCI-H196 (ATCC, cat. CRL-5823, RRID:CVCL_1509), SW 1271 (ATCC, cat. CRL-2177, RRID:CVCL_1716) and NCI-H1876 (ATCC, cat. CRL-5902, RRID:CVCL_1503) small cell lung carcinomas, MDA-MB-231 (RRID:CVCL_0062) and MDA-MB-468 (RRID:CVCL_0419)breast carcinomas (10-12). Pooled donor human umbilical vein endothelial cells (HUVEC, Lonza, cat. CC-2519) and human mesenchymal stem cells (hMSC, Lonza, cat. PT-2501) were purchased from Lonza (Walkersville, MD).
Cell Culture. All cells were maintained in an incubator at 37 degrees C and 5% CO2 with 95% humidity. The PDC lines were cultured according to standard operating procedures established by the NCI PDMR (https://pdmr.cancer.gov). Briefly all PDCs were thawed and cultured in Matrigel-coated flasks prepared with a working solution of 1X Ham's F-12 nutrient mix, without supplementation (Invitrogen, Waltham, MA, cat. 11765054), 100 U/mL penicillin-streptomycin (Invitrogen, cat. 15140122), and 2.5% Matrigel (Corning Inc., Corning, NY, cat. 354248) for the first three passages. […]

[1] = second compound 0.1 µM, first compound 0.0316 µM
[2] = second compound 0.1 µM, first compound 0.1 µM
[3] = second compound 0.1 µM, first compound 0.316 µM
[4] = second compound 0.1 µM, first compound 1 µM
[5] = second compound 0.316 µM, first compound 0.0316 µM
[6] = second compound 0.316 µM, first compound 0.1 µM
[7] = second compound 0.316 µM, first compound 0.316 µM
[8] = second compound 0.316 µM, first compound 1 µM
[9] = second compound 1 µM, first compound 0.0316 µM
[10] = second compound 1 µM, first compound 0.1 µM
[11] = second compound 1 µM, first compound 0.316 µM
[12] = second compound 1 µM, first compound 1 µM
[13] = second compound 3.16 µM, first compound 0.0316 µM
[14] = second compound 3.16 µM, first compound 0.1 µM
[15] = second compound 3.16 µM, first compound 0.316 µM
[16] = second compound 3.16 µM, first compound 1 µM
[17] = second compound 10 µM, first compound 0.0316 µM
[18] = second compound 10 µM, first compound 0.1 µM
[19] = second compound 10 µM, first compound 0.316 µM
[20] = second compound 10 µM, first compound 1 µM
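Note: drug exposure lasted 7 days starting on day 3 after seeding.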
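Throughout, for viability, T/C: luminescence viability as percent of DMSO vehicle wells = 100%.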

Row | Structure (SMILES) | IC50 (second compound 0.1 µM) [nM] | IC50 (second compound 0.316 µM) [nM] | IC50 (second compound 1 µM) [nM] | IC50 (second compound 3.16 µM) [nM] | IC50 (second compound 10 µM) [nM] | viability, T/C [1] [%] | viability, T/C [2] [%] | viability, T/C [3] [%] | viability, T/C [4] [%] | viability, T/C [5] [%] | viability, T/C [6] [%] | viability, T/C [7] [%] | viability, T/C [8] [%] | viability, T/C [9] [%] | viability, T/C [10] [%] | viability, T/C [11] [%] | viability, T/C [12] [%] | viability, T/C [13] [%] | viability, T/C [14] [%] | viability, T/C [15] [%] | other results
1 | O=C(C=Cn1cnc(-c2cc(C(F)(F)F)cc(C(F)(F)F)c2)n1)NNc1cnccn1 + NC1CCC(NC2CC2c2ccccc2)CC1 | 34.6 | 54.3 | 45.6 | 40.4 | 45.1 | 49.8 | 44.6 | 38.1 | 28.6 | 51.2 | 49.5 | 39.5 | 28.1 | 54.3 | 46.6 | 40 | 28.4 | 52.8 | 44.3 | 40.9 | viability, T/C (second compound 0.1 µM, first compound 0.00316 µM): 126%; viability, T/C (second compound 0.1 µM, first compound 0.01 µM): 106%; viability, T/C (second compound 0.316 µM, first compound 0.00316 µM): 142%; viability, T/C (second compound 0.316 µM, first compound 0.01 µM): 98.2%; viability, T/C (second compound 1 µM, first compound 0.00316 µM): 128%; viability, T/C (second compound 1 µM, first compound 0.01 µM): 116%; viability, T/C (second compound 3.16 µM, first compound 0.00316 µM): 110%; viability, T/C (second compound 3.16 µM, first compound 0.01 µM): 106%; viability, T/C [16]: 27.9%; viability, T/C (second compound 10 µM, first compound 0.00316 µM): 99.1%; viability, T/C (second compound 10 µM, first compound 0.01 µM): 101%; viability, T/C [17]: 55.5%; viability, T/C [18]: 43.1%; viability, T/C [19]: 37.5%; viability, T/C [20]: 31.9%
2 | CC1(C)CCC(CN2CCN(c3ccc(C(=O)NS(=O)(=O)c4ccc(NCC5CCOCC5)c([N+](=O)[O-])c4)c(Oc4cnc5[nH]ccc5c4)c3)CC2)=C(c2ccc(Cl)cc2)C1 + NC1CCC(NC2CC2c2ccccc2)CC1 | 6210 | 6160 | 6040 | 5850 | 5530 | 103 | 94.7 | 95.6 | 101 | 96.7 | 95.1 | 88.5 | 100 | 94.4 | 99.1 | 78.7 | 93.3 | 85.4 | 84.3 | 109 | viability, T/C (second compound 0.1 µM, first compound 3.16 µM): 93.4%; viability, T/C (second compound 0.1 µM, first compound 10 µM): 19.2%; viability, T/C (second compound 0.316 µM, first compound 3.16 µM): 93.9%; viability, T/C (second compound 0.316 µM, first compound 10 µM): 18%; viability, T/C (second compound 1 µM, first compound 3.16 µM): 102%; viability, T/C (second compound 1 µM, first compound 10 µM): 16.2%; viability, T/C [16]: 101%; viability, T/C (second compound 3.16 µM, first compound 3.16 µM): 86.2%; viability, T/C (second compound 3.16 µM, first compound 10 µM): 18.3%; viability, T/C [17]: 82.3%; viability, T/C [18]: 78.4%; viability, T/C [19]: 92.4%; viability, T/C [20]: 72.2%; viability, T/C (second compound 10 µM, first compound 3.16 µM): 83.8%; viability, T/C (second compound 10 µM, first compound 10 µM): 16.2%
